{"source": "patent US7964629B2", "about": "“Inhibitors of isoprenylcysteine carboxyl methyltransferase” (Duke Universtiy, priority 2005, dated 2011)", "key": {"[1]": {"target": "SssI DNA methyltransferase (Spiroplasma monobiae, UniProt P15840)", "sequence (P15840 whole entry)": "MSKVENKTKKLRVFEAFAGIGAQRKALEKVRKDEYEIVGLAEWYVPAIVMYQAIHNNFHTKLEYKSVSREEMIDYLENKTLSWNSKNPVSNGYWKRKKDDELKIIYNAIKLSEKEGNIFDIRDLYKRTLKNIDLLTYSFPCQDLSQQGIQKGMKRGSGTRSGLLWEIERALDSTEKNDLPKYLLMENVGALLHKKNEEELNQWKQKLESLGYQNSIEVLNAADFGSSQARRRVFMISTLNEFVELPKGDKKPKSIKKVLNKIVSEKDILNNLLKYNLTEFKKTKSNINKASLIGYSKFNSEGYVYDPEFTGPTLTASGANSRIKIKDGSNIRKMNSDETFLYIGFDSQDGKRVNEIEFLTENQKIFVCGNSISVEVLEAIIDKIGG", "assay": "AdoMet-dependent DNA methyltransferase inhibition (results not shown)", "type": "biochemical", "conditions": "concentrations up to 50 μM"}, "[2]": {"test_system": "Icmt+/+ mouse embryonic fibroblasts", "assay": "Cell growth determination, wild-type fibroblasts", "type": "cell-based", "conditions": "15, 20, 30 μM; 10% serum; six days", "experimental": "(§1) FIGS. 2A-2C. […] Media and drug were replaced daily, and cell growth was monitored for six days. Data represent the mean and standard deviation of four replicate wells. (FIG. 2A) Icmt^+/+ cells; (FIG. 2B) Icmt^−/− cells; (C) Icmt^−/− cells stably transfected with a gene expressing human ICMT (Icmt^−/−/ICMT cells).\n(§2) Cell growth assays were performed in a 96-well plate format. Briefly, 500 to 1000 cells were plated into 96-well plates. After the cells were allowed to attach for 24 h, media was removed and replaced with media containing either compound or vehicle. Media and drug were replaced every 24 h throughout the assay. Cell determinations were made at the times indicated in the respective figure by adding 19 μl of CellTiter 96 AqueousOne solution to each well followed by incubation of the plates in the dark at 37° C. for two hr after which the absorbance at 490 nm was read. Background absorbance from blank wells containing only media with compound or vehicle was subtracted from each test well. Typically, 3-6 replicate wells were employed for each point in each assay."}, "Icmt−/−/ICMT cells": {"test_system": "Icmt−/−/ICMT cells", "assay": "Cell growth determination, Icmt−/− cells expressing human ICMT", "type": "cell-based, mouse", "conditions": "15, 20, 30 μM; 10% serum; six days", "experimental": "as §1, §2"}, "[3]": {"test_system": "GFP-tagged K-Ras in MDCK cells", "assay": "Localization of GFP-K-Ras in MDCK cells", "type": "cell-based", "conditions": "10, 20, 30 μM; 72 h", "experimental": "(§3) FIGS. 3A and 3B. Impact of cysmethynil treatment on Ras localization and signaling. FIG. 3A. Mislocalization of GFP Ras in cysmethynil treated cells. […] Live cells were imaged on a spinning disk confocal microscope. FIG. 3B. Impact of cysmethynil treatment on EGF-stimulated protein phosphorylation. […] Where indicated, cells were treated with EGF for the final 10 min prior to harvesting. Cell lysates containing equal amounts of protein were resolved on a 13% SDS-polyacrylamide gel and probed with antiphospho-Akt, antiphospho-p42/44 MAPK or anti-β-tubulin antibody as indicated. MDCK cells stably expressing GFP-H-Ras, GFP-K-Ras or GFP-N-Ras were grown on 35 mm coverslip dishes (MatTek Corporation, Ashland, Mass.) treated with poly-D-lysine. MDCK cells expressing […] were prepared by transient transfection of the Yes-GFP construct (McCabe and Berthiaume, Mol Cell Biol 10:3771-3786 (1999)) using Superfect reagent (Quiagen, Valencia, Calif.) following the manufacturer's instructions. […] Cells were imaged 72 h after drug treatment (24 h for transiently transfected cells) on an Olympus IX70 inverted microscope (Melville, N.Y.) with an UltraView spinning-disk confocal (PerkinElmer LAS, Wellesley, Mass.) and a Krypton/Argon laser, 488 nm line, attached to a cooled-CCD camera (Hamamatsu, Bridgewater, N.J.). […]"}, "Yes-GFP in MDCK cells": {"test_system": "Yes-GFP in MDCK cells", "assay": "Localization of Yes-GFP in MDCK cells (control)", "type": "cell-based", "conditions": "10, 20, 30 μM", "experimental": "as §3"}, "[4]": {"test_system": "p42/44 MAPK phosphorylation in DKOB8 cells expressing GFP-Icmt", "assay": "EGF-stimulated MAPK activation in Icmt-overexpressing cells", "type": "cell-based", "conditions": "5 μM, three days, reduced-serum media; Icmt activity elevated 4-fold", "experimental": "FIGS. 4A-4C. Overexpression of Icmt rescues EGF-stimulated MAPK activation and anchorage-independent growth in cysmethynil-treated cells. FIG. 4A. Creation of cell lines stably overexpressing Icmt. DKOB8 cells were engineered to stably express either GFP alone or a GFP-Icmt fusion protein. Membrane fractions from GFP and GFP-ICMT expressing lines were assayed for Icmt activity using the BFC assay. FIG. 4B. Overexpression of Icmt restores EGF-stimulated MAPK activation in cysmethynil-treated cells. […] Where indicated, cells were treated with EGF for the final 10 min prior to harvesting. Cell lysates containing equal amounts of protein were resolved on a 13% SDS-polyacrylamide gel and probed with antiphospho-p42/44 MAPK or, as a control, antiphospho NFκB antibody as indicated. FIG. 4C. […] After 3 weeks of growth, colonies were stained with MTT and imaged.\nHalf of the wells were then treated with EGF (10 ng/ml) and half with vehicle for 10 min. Cells were rinsed with PBS and harvested in SDS-PAGE loading buffer. Total cell lysates (30 μg protein) were resolved on 4-20% Tris-glycine polyacrylamide gels (Invitrogen). Proteins were transferred to nitrocellulose and probed with a mix of anti-phospho-Akt and anti-phospho-p42/44 MAPK antibodies, or with anti-tubulin or anti-phospho NFκB antibody (Cell Signaling Technology) as indicated. […]"}, "[5]": {"test_system": "RhoA in MDA-MB-231 breast cancer cells", "assay": "Immunoblot of steady-state Rho level", "type": "cell-based", "conditions": "20 μM, 6 day treatment", "experimental": "(§4) The impact of Icmt inhibition on function of the geranylgeranylated GTPases Rho and Rac in cells has been examined. This study was carried out in MD-MBA-231 breast cancer cells. Tumorigenesis and metastatic behavior of these cells is dependent on high levels of Rho GTPases in particular. […] Cells were harvested and lysates containing equal amounts of protein were resolved by SDS-PAGE and subjected to immunoblot analysis with specific antibodies to RhoA (FIG. 7A), or Rac1 (FIG. 7B). As a control, immunoblot analysis for α-tubulin was carried out on all samples."}, "[6]": {"test_system": "Rac1 in MDA-MB-231 breast cancer cells", "assay": "Immunoblot of steady-state Rac level", "type": "cell-based", "conditions": "20 μM, 6 day treatment", "experimental": "as §4"}, "[7]": {"test_system": "α-tubulin in MDA-MB-231 breast cancer cells", "assay": "Immunoblot of control protein α-tubulin", "type": "cell-based", "conditions": "20 μM, 6 day treatment", "experimental": "as §4"}}, "data": [{"smiles": "CCCCCCCCn1cc(CC(N)=O)c2cc(-c3cccc(C)c3)ccc21", "note": "[cysmethynil, 2-[5-(3-methylphenyl)-1-octyl-1H-indol-3-yl]acetamide]", "values": [{"measurement": "inhibition of SssI DNA methyltransferase", "setting": "[1]", "result": "nor did it inhibit"}, {"measurement": "cell growth", "setting": "[2]", "result": "dose-dependent inhibition of growth"}, {"measurement": "cell growth", "setting": "Icmt−/−/ICMT cells", "result": "regained sensitivity"}, {"measurement": "localization of GFP-K-Ras", "setting": "[3]", "result": "dose-dependent mislocalization"}, {"measurement": "plasma membrane localization of Yes-GFP", "setting": "Yes-GFP in MDCK cells", "result": "did not affect"}, {"measurement": "blockade of EGF-stimulated MAPK activation", "setting": "[4]", "result": "protect the cells from cysmethynil blockade"}, {"measurement": "Rho levels", "setting": "[5]", "result": "almost undetectable"}, {"measurement": "Rac levels reduced", "setting": "[6]", "result": "> 80", "unit": "%"}, {"measurement": "level of control protein α-tubulin", "setting": "[7]", "result": "only marginally affected"}]}]}
